Experimental data: patent US8772348B2, “Materials and methods for pest control” (priority 2009, dated 2014)
Like-named read-outs stand apart in the source and are kept apart here.

Legend:
[1] = tested on: Stomoxys calcitrans
Protocol: Briefly, one Stomoxys calcitrans strain is collected from the University of Florida dairy unit in Alachua County, Florida, U.S.A. (“the Alachua strain”) and subsequently reared at 27° C. in the laboratory of the Entomology and Nematology Department, University of Florida.
Each strain is divided into four sets: three sets as the experimental treatments and the other set as the control. […] The control set is not exposed to any chemical compound. The mortality rate is measured after a 2-hour, 4-hour, and 24-hour period. Ataxic flies are considered dead. The mortality rate and the LC values are determined using the same procedures as is illustrated in Example 2.

[2] = tested on: Aedes aegypti; details: EC formulation on military fabric
Protocol: A commercially-available permethrin 57 g L^−1 EC (Ectiban EC 57; Universal Cooperatives, Minneapolis, Minn.) was included for comparison. Except rosalva, the 50% EC semiochemical formulations were generated by combining 500 mL AI, 430 mL canola oil (Publix, Lakeland, Fla.), 10 mL xylene, 50 mL Triton X-100 (Acros Organics Nev., Fair Lawn, N.J.) and 10 mL Agsolex-8 (International Specialty Products, Wayne, N.J.). The rosalva formulation contained all of the above-mentioned ingredients, with canola oil concentration reduced to 400 mL L^−1, Triton X-100 concentration increased to 75 mL L^−1, and 5 mL L^−1 Antifoam B silicone emulsion (Mallinckrodt Baker, Phillipsburg, N.Y.) included.
Briefly, a piece of 10×10 cm^2 fabric (TenCate Defender™) is impregnated with 2 ml of serially diluted 20-emulsifiable concentrate or 50-emulsifiable concentrate formulations, respectively, and subsequently dried for about an hour. Also, six-to-ten-day-old, never blood-fed, adult female Ae. aegypti mosquitoes are obtained. The mosquitoes are divided into seven sets: three sets as the experiment, three sets as the positive control, and one set as the negative control. Each set consists of 20 mosquitoes. […] The positive control set is exposed to fabric pieces treated with geranyl acetone, rosalva or citronellol. The negative control set is exposed to fabric pieces treated with acetone solution. Throughout the exposure periods, each set is provided with 10% sucrose solution and sufficient air circulation. Ataxic mosquitoes are considered dead. The mortality rate and the LC values are determined using the same procedures as are illustrated in Example 2.

[3] = tested on: Susceptible Musca domestica; assay: Glass jar contact bioassay, susceptible (laboratory) house flies; details: for decline in toxicity after a 24-hour holding period subsequent to an initial 2-hour exposure: 2 h transferred vs 2 h constant
Protocol: Briefly, adult house flies, Musca domestica, are obtained from strains that have been reared in the laboratory of the Entomology and Nematology Department, University of Florida. […] The positive control is exposed to serial dilutions of permethrin. The negative control is not exposed to any chemical compound. The mortality rate is measured after 2-hour, 4-hour, and 24-hour periods. Ataxic flies are considered dead.
The ability of house flies to recover from insecticidal exposure is also investigated. After a 2-hour exposure, each set of flies is transferred into a separate glass jar. The mortality rate is measured at two time intervals: first, immediately at the transfer (2 hours after the initial exposure), and second, 22 hours after the transfer (24 hours after the initial exposure).
The mortality rate is analyzed using the PROBIT model. The data is adjusted based on the mortality rate in the control set using the Abbott's transformation, and the percent mortality is further analyzed based on ANOVA measurement. The experiment is repeated at least three times. The data is discarded if the mortality rate in the control set exceeds 10%. The LC50 and LC90 values are further determined using the SAS (Cary, N.C., USA) statistical software. For each chemical compound, at least 1280 flies are examined.

[4] = tested on: Field-collected Musca domestica; details: for % mortality: formulation on plywood panels, 3.33 mg/cm^2 (footnote 1.67)
Protocol: Briefly, one Musca domestica strain and one other Musca domestica strain are obtained as is illustrated in Example 3. Each fly strain is divided into seven sets: three sets as the experiment, three sets as the positive control, and one set as the negative control. Flies are assayed on unpainted plywood panel boards that have been previously exposed to natural summer weather conditions for at least 10 days. […] The formulation is applied at a uniform rate of 7.5 ml per 225 cm^2, sufficient to cover the entire panel without dripping. Subsequently, the treated panel boards are dried for about an hour.
In each set, 20 adult flies are placed onto panel boards. Flies are secured with wooden embroidery hoops, covered with a coarse mesh screen cloth previously sprayed with the respective formulation. After 4 hours, flies are transferred into a clean jar. The mortality rate is measured 24 hours after the transfer, and is determined using the same procedures as are illustrated in Example 2.
Plywood panels (225 cm^2) were treated with chemicals at a rate of 1.67 mg cm^−2. Panels were treated on day 0 and was held until exposure on post-treatment day. Mosquitoes were exposed to chemicals for 2 h, and mortality rate was assessed 24 h after initial exposure. Control contained formulation ingredients without semiochemicals.

[5] = tested on: honey bees, Apis mellifera; assay: Olfactory response assay in MEDUSA olfactometer, honey bee behaviors; type: in vivo; details: 0.25 mg semiochemical on perfumery strips; F7.72=0.705, p=0.67; data not shown
[6] = tested on: Aedes albopictus; details: for mortality at the 24-hour examination: 24-hour exposure
Source text: (§1) Briefly, Anopheles quadrimaculatus (Say) is obtained from the United States Department of Agriculture, ARS, Center for Medical, Agricultural and Veterinary Entomology, Gainesville, Fla., and adults are held in the laboratory of the Entomology and Nematology Department, University of Florida with no insecticide exposure or introduction of other insects. The Asian tiger mosquito, Ae. albopictus (Skuse) is obtained from a laboratory colony of the Entomology and Nematology Department, University of Florida.
(§2) Each strain is divided into four sets: three sets as the experiment and the other set as the control. […] The mortality rate is measured after a 2-hour, 4-hour, and 24-hour exposure period. Ataxic mosquitoes are considered dead. The mortality rate and the LC values are determined using the same procedures as is illustrated in Example 2.

[7] = tested on: Anopheles quadrimaculatus; details: for mortality at the 24-hour examination: 24-hour exposure
Source text: as §1, §2

[8] = 2 h constant exposure, glass jar
[9] = 2 h exposure, transferred to clean jars, mortality 24 h after initial exposure
[10] = 4 h constant exposure, glass jar

Structure (SMILES)	LC90 ([1]; 2 h constant exposure) [μg cm^−2]	LC90 ([1]; 4 h constant exposure) [μg cm^−2]	LC90 ([1]; 24 h constant exposure) [μg cm^−2]	LC90 ([2]; exposure period 2 hours) [μg cm^−2]	LC90 ([2]; exposure period 4 hours) [μg cm^−2]	LC90 ([2]; exposure period 24 hours) [μg cm^−2]	LC90 [3, 8] [μg cm^−2]	LC90 [3, 9] [μg cm^−2]	decline in toxicity after a 24-hour holding period subsequent to an initial 2-hour exposure [3]	LC90 [3, 10] [μg cm^−2]	attraction or repellence of honey bees (contact seconds per hour) [5]	mortality at the 24-hour examination [6]	mortality at the 24-hour examination [7]	further results
C/C=C/C(=O)C1=C(C)CCCC1(C)C [Beta damascone, beta damascone]	34.57	29.68	20.33	910.52	648.16	534.26	78.46	74.63	no decline in toxicity	53.59	do not attract or repel honey bees	All mosquitoes were dead	All mosquitoes were dead	mortality rate ([3]; in vivo): ~100%; mortality rate ([4]; in vivo): 95.0-100.0%
CC1(C)CCCC2=C1CC(C=O)CC2 (centres unmarked) [Cyclemone A, 2-naphthaldehyde, 1,2,3,4,5,6,7,8-octahydro-8,8-dimethyl]	31.31	32.38	27.10	452.11	488.13	330.22	69.90	68.95	no decline in toxicity	71.44	do not attract or repel honey bees	All mosquitoes were dead	All mosquitoes were dead	LC50 ([1]; 2 h constant exposure): 19.52 μg cm^−2; LC50 ([1]; 4 h constant exposure): 18.18 μg cm^−2; LC50 ([1]; 24 h constant exposure): 14.82 μg cm^−2; LC50 ([2]; exposure period 2 hours): 180.23 μg cm^−2; LC50 ([2]; exposure period 4 hours): 172.56 μg cm^−2; LC50 ([2]; exposure period 24 hours): 136.19 μg cm^−2; LC50 [3, 8]: 48.24 μg cm^−2; LC50 [3, 9]: 47.29 μg cm^−2; LC50 [3, 10]: 44.52 μg cm^−2; mortality rate ([3]; after 24-hour exposure): ~100%; % mortality ([4]; Alachua strain): 100.00a %; % mortality ([4]; Gilchrist strain): 95.00a %; LC50 ([6]; 2 h constant exposure): 19.88 μg cm^−2; LC50 ([6]; 4 h constant exposure): 18.72 μg cm^−2; LC50 ([7]; 2 h constant exposure): 14.29 μg cm^−2; LC50 ([7]; 4 h constant exposure): 12.27 μg cm^−2
